Here are results for four compounds from ChEMBL document CHEMBL2401661, “Cyanidin, a natural flavonoid, is an agonistic ligand for liver X receptor alpha and beta and reduces cellular lipid accumulation in macrophages and hepatocytes” (Bioorg Med Chem Lett, 2013).

The target of assay [1] is T1, Oxysterols receptor LXR-beta (Homo sapiens, UniProt P55055). Briefly: Agonist activity at human LXRbeta-LBD assessed as recruitment of co-activator peptide after 2 hrs by TR-FRET assay.
The target of assay [2] is T2, Oxysterols receptor LXR-alpha (Homo sapiens) (UniProt Q13133).
T2 sequence (whole entry): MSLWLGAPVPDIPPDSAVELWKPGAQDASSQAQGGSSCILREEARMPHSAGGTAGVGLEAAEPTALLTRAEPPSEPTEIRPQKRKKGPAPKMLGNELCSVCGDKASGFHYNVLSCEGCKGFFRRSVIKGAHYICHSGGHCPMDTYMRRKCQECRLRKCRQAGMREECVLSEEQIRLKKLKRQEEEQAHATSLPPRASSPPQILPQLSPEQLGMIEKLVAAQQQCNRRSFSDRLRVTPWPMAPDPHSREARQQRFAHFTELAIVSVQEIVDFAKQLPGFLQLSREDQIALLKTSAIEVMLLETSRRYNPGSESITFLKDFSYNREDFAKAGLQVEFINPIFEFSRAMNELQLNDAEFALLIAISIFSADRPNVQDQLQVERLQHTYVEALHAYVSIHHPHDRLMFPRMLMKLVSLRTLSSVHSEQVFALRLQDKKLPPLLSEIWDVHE
Briefly: (§1) Agonist activity at human LXRalpha-LBD assessed as recruitment of co-activator peptide after 2 hrs by TR-FRET assay.

For assay [3], the target named is T2, Oxysterols receptor LXR-alpha (Homo sapiens). Briefly: (§2) Binding affinity to human LXRalpha-LBD by surface plasmon resonance.
Assay [4] addresses T1, Oxysterols receptor LXR-beta. Briefly: Binding affinity to human LXRbeta-LBD by surface plasmon resonance.
For assay [5], the target named is T3, Oxysterols receptor LXR-alpha (Homo sapiens, UniProt Q13133).
T3 sequence (Q13133 whole entry): T2 sequence (whole entry)
The assay is described as §1.

Assay [6] deals with T4, Liver X receptor (Homo sapiens) (UniProt Q13133+P55055). Description: Agonist activity at LXR in human HepG2 cells assessed as reduction in cellular triglyceride at 100 uM after 24 hrs. It counts as cell-based. Also noted: scale not given: the % may be the effect or the level left.
T4 sequence (P55055 whole entry, looked up, one chain of several): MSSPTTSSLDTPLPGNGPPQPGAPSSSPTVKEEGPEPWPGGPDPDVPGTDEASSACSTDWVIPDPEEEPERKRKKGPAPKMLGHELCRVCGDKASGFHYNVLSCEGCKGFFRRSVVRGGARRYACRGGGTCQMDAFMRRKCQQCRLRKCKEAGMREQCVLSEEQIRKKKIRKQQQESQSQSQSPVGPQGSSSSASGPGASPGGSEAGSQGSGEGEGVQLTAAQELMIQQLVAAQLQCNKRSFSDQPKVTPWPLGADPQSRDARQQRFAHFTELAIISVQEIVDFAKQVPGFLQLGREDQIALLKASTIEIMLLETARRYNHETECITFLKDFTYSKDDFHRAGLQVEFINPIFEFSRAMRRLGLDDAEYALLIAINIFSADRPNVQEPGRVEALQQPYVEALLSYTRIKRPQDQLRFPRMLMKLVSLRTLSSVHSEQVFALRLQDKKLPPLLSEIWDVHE
The target of assay [7] is T4, Liver X receptor (Homo sapiens). Briefly: Agonist activity at LXR in human THP1 cells assessed as reduction in cellular triglyceride at 100 uM after 24 hrs. It is filed as cell-based. Also noted: scale not given: the % may be the effect or the level left. The conditions noted are these: THP-1.
For assay [8] the target is unchanged. Briefly: Agonist activity at LXR in human HepG2 cells assessed as reduction in cellular triglyceride after 24 hrs. It counts as cell-based.
Assay [9] shares this target. Briefly: Agonist activity at LXR in human HepG2 cells assessed as reduction in cellular cholesterol after 24 hrs. It is filed as cell-based.
Assay [10] has the same target. Briefly: Agonist activity at LXR in human THP1 cells assessed as reduction in cellular cholesterol after 24 hrs. It is filed as cell-based. Conditions: THP-1.
The target is the same in assay [11]. Briefly: Agonist activity at LXR in human THP1 cells assessed as reduction in cellular triglyceride after 24 hrs. It counts as cell-based. Conditions: THP-1.
Assay [12] shares this target. Description: Agonist activity at LXR in human HepG2 cells assessed as upregulation of ABCG5 expression at 100 uM after 24 hrs by RT-qPCR analysis relative to control. It is filed as cell-based.
The target is the same in assay [13]. Briefly: Agonist activity at LXR in human HepG2 cells assessed as upregulation of SREBP1C expression at 100 uM after 24 hrs by RT-qPCR analysis relative to control. It counts as cell-based.
Assay [14] has the same target. Description: Agonist activity at LXR in human HepG2 cells assessed as upregulation of ABCA1 expression at 100 uM after 24 hrs by RT-qPCR analysis relative to control. It counts as cell-based.
Assay [15] deals with T1, Oxysterols receptor LXR-beta. Briefly: Agonist activity at LXRbeta in human HepG2 cells assessed as LXRbeta transcription at 50 to 100 uM after 24 hrs by RT-qPCR analysis. It is filed as cell-based.
Assay [16] concerns the target T2, Oxysterols receptor LXR-alpha (Homo sapiens). Briefly: Induction of LXRalpha transcription in human HepG2 cells at 50 to 100 uM after 24 hrs by RT-qPCR analysis relative to control. It counts as cell-based.
The target of assay [17] is T1, Oxysterols receptor LXR-beta. Description: Agonist activity at LXRbeta (unknown origin) expressed in CHOK1 cells assessed as induction of transactivation activity at 100 uM after 24 hrs by luciferase reporter gene assay relative to control. It counts as cell-based. Conditions: CHO-K1.
For assay [18], the target named is T3, Oxysterols receptor LXR-alpha. The assay is described as §2.
The target in assay [19] is T2, Oxysterols receptor LXR-alpha (Homo sapiens). Description: Agonist activity at LXRalpha (unknown origin) expressed in CHOK1 cells assessed as induction of transactivation activity at 100 uM after 24 hrs by luciferase reporter gene assay relative to control. It is filed as cell-based. Conditions: CHO-K1.
For assay [20] the target is unchanged. Description: Agonist activity at LXRalpha (unknown origin) expressed in CHOK1 cells assessed as induction of transactivation activity at 50 uM after 24 hrs by luciferase reporter gene assay relative to control. It is filed as cell-based. Conditions: CHO-K1.

Active and inactive are the calls of the source. The rule behind the calls is not given here.

T1 sequence (P55055 whole entry, the tested form may be a part): as the sequence (P55055 whole entry, looked up, one chain of several) above

`O=C(O)c1ccc(O)c(O)c1`: the outcome in [1], in assay [2], in [3] and in [4] was inactive.

In the case of `O=Cc1c(O)cc(O)cc1O`, the result in assay [1], in assay [2], in assay [3] and in [4] was inactive.

Consider `CC(C)CC[C@@H](O)[C@@H](C)[C@H]1CC[C@H]2[C@@H]3CC=C4C[C@@H](O)CC[C@]4(C)[C@H]3CC[C@]12C` [22(R)-HYDROXYCHOLESTEROL], for which the EC50 in [5] was 1 µM.

As to `Oc1cc(O)c2cc(O)c(-c3ccc(O)c(O)c3)[o+]c2c1` [CYANIDIN], the Activity was -23% in assay [6]; -21% in [7]; “Dose-dependent effect” in [8]; “Dose-dependent effect” in assay [9]; “Dose-dependent effect” in assay [10]; “Dose-dependent effect” in [11]. Further, the Activity turned out to be 33% in assay [17], 59% in [19] and 32% in assay [20]. Besides, the fold change (FC) in [12] was determined as 1.4; in assay [13], 3.6; in assay [14] it was 2.5; in assay [16], 1.5. Besides, in assay [15], the result was inactive. Besides, the results for the EC50 in [1] and in [5] were 125 µM and 3.5 µM, respectively. For the same compound, the results for the Kd in assay [18] and in assay [4] were 2.2 µM and 73.2 µM, respectively.
